In US20250271419A1, “PLACENTA ORGANOID ON-A-CHIP AND USE THEREOF” (THE REGENTS OF THE UNIVERSITY OF CALIFORNIA, priority 2024, published 2025):
Like-named read-outs stand apart in the source and are kept apart here.

Columns and labels:
[1] = test system: day 7 placental organoids; test: Drug toxicity response, CellTiter-Glo luminescent cell viability, day 7 placental organoids; settings: Homo sapiens, read-out: IC50 (drug toxicity based on cell survival)
Excerpt: It is well-established that ethical constraints hamper the testing of drugs on pregnant women. Furthermore, maternal drug usage is known to promote a range of conditions, such as fetal drug tolerance, antibiotic resistance, toxicity, obesity and diabetes. While it is rendered safe to use certain drugs during pregnancy, the actual short as well as long-term effects of these drugs on fetal health cannot be currently studied. Therefore, as an application of the placental organoids systems in drug toxicity testing, these organoids were treated with commonly used compounds such as nicotine, acetaminophen, ibuprofen and lumiracoxib. […] Acetaminophen, also known as paracetamol, is usually considered as a safe antipyretic and analgesic medicine for pregnant women. However, acetaminophen and its metabolites easily cross the placenta and are potentially toxic as it has previously been detected in the fetus and is implicated in adverse birth and later life health outcomes. Nonsteroidal anti-inflammatory drugs (NSAIDs) such as Ibuprofen are the most commonly used medications for the treatment of pain, inflammation and fever during pregnancy. Ibuprofen readily enters fetal circulation, raising concerns about its long-term effects on fetal health and development. While the use of another NSAID, Lumiracoxib, has not been adequately investigated. […] Therefore, it has been recommended that it should not be used during the first two trimesters of pregnancy unless it justifies the potential risk to the fetus. Day 7and day 15 placental organoids were treated with increasing doses of drugs such as nicotine, acetaminophen, ibuprofen and lumiracoxib. The drug toxicity and IC50 value of the drugs was determined based on cell survival at 24 and 48 hours post drug exposure.
Placental organoids (12-15 organoids/well) were treated with different concentrations of nicotine (0.1, 0.5, 1, 5, 10, 20 mg/mL), acetaminophen (0.01, 0.1, 1, 5, 10, 20 mM), ibuprofen (25, 50, 100, 200, 400, 800 mg/mL) and lumiracoxib (0.01, 0.1, 1, 5, 10, 20 mM) for 24 and 48 hours to determine the IC50 value for drug toxicity. Post-incubation with the drugs for 24 and 48 hours respectively, the cell viability was determined using a CellTiter-Glo Luminescent cell viability assay (Promega #G7570). Briefly, cell supernatant was mixed with equal volume of CellTiter-Glo reagent for 2 minutes on an orbital shaker, incubated for 10 minutes in dark at room temperature and then the luminescence was determined using a Tecan plate reader (Tecan Spark).

[2] = crosses the placental barrier; cited from earlier work

SMILES | IC50 ([1]; 24 hours post drug exposure) | IC50 ([1]; 48 hours post drug exposure) | fetal concentration higher than mother [2]
CC(=O)Nc1ccc(O)cc1 [acetaminophen] | 2680 µM | 1110 µM | –
CC(C)Cc1ccc(C(C)C(=O)O)cc1 (centres unmarked) [ibuprofen] | – | 45300 µg/mL | –
CN1CCCC1c1cccnc1 (centres unmarked) [nicotine] | 5700 µg/mL | 1190 µg/mL | 15%
Cc1ccc(Nc2c(F)cccc2Cl)c(CC(=O)O)c1 [lumiracoxib] | 841 µM | 220 µM | –
